Test results as given in patent publication EP3445348B1, “FLUORESCENT COMPOUNDS, PRODUCTION METHODS AND USES THEREOF” (Universidade de Aveiro, priority 2016, dated 2017).

Assays:
[1] = comparison compound; cited from earlier work
HeLa cells = assay: Resazurin metabolic cell viability assay, HeLa cells; type: cell-based; conditions: Human HeLa live cells, 24h, 1×10^-5 mol.L^-1
Description: (§1) The following figures provide preferred embodiments for the present disclosure and should not be seen as limiting the scope of the disclosure. • Figure 1: Scheme of the fluorophore precursors synthesis. • Figure 2: Synthesis of the fluorophores. • Figure 3: Absorption and emission spectra of some of the fluorophores in a dichloromethane (DCM) solution wherein black squares represent the absorption of (1E,4E)-1,5-bis[4-(dimethylamino)phenyl]penta-1,4-dien-3-one; black circles represent the absorption of (2E,6E)-2,6-bis[4-(dimethylamino)benzylidene]cyclohexanone; black diamonds represent the absorption of 2,6-bis[3-bromo-4-(dimethylamino)benzylidene]cyclohexanone; black triangles pointing up represent the absorption of (1E,4E)-1,5-bis[3-bromo-4-(dimethylamino)phenyl]penta-1,4-dien-3-one; black triangles pointing down represent the absorption of (1E,4E)-1,5-bis[3-chloro-4-(dimethylamino)phenyl]penta-1,4-dien-3-one; black stars represent the absorption of 2,6-bis[3-chloro-4-(dimethylamino)benzylidene]cyclohexanone; open squares represent the emission of (1E,4E)-1,5-bis[4-(dimethylamino)phenyl]penta-1,4-dien-3-one; open circles represent the emission of (2E,6E)-2,6-bis[4-(dimethylamino)benzylidene]cyclohexanone; open diamonds represent the emission of 2,6-bis[3-bromo-4-(dimethylamino)benzylidene]cyclohexanone; open triangles pointing up represent the absorption of (1E,4E)-1,5-bis[3-bromo-4-(dimethylamino)phenyl]penta-1,4-dien-3-one; open triangles pointing down represent the absorption of (1E,4E)-1,5-bis[3-chloro-4-(dimethylamino)phenyl]penta-1,4-dien-3-one; open stars represent the absorption of 2,6-bis[3-chloro-4-(dimethylamino)benzylidene]cyclohexanone. • Figure 4: Sample distributions of two cyclic fluorophores: (2E,6E)-2,6-bis[3-bromo-4-(dimethylamino)benzylidene]cyclohexanone labelled as cyclic-Br and (2E,6E)-2,6-bis[3-chloro-4-(dimethylamino)benzylidene]cyclohexanone labelled as cyclic-Cl (orange pseudocolour) in HeLa cells cultured on coverslips and incubated alive and for 1h with 10^-5 mol.L^-1 of the compounds. The laser line 458 nm was used to excite and the confocal Zeiss LSM-510 META 415 to 750 nm detector used to detect the fluorophores. The nuclear DAPI is used as a counterstaining dye. • Figure 5: Co-localization of the compounds (1E,4E)-1,5-bis[4-(dimethylamino)phenyl]penta-1,4-dien-3-one, labelled as linear-H and (2E,6E)-2,6-bis[3-chloro-4-(dimethylamino)benzylidene]cyclohexanone, labelled as cyclic-Cl with the Trans-Golgi Network (TGN) marker Syntaxin-6, which was Texas Red (red colour) and Alexa-405 (cyan pseudocolour) labelled by using secondary antibodies. DAPI (blue colour) was used as nuclear marker. HeLa cells were incubated in particular for 1h with 1-2×10^-5 mol.L^-1 of the fluorophores, before being fixed. The laser line 405 nm, in particular at 10-20% of its power was used to excite the fluorophores. […] A. Cell viability was determined using the metabolic Resazurin assay, and data (resazurin final O.D.±SD of four independent experiments) presented graphically as percentages of control cells (not incubated with the compounds), wherein the control is labelled as Ctrl; (1E,4E)-1,5-bis[4-(dimethylamino)phenyl]penta-1,4-dien-3-one is labelled as L-H; (1E,4E)-1,5-bis[3-chloro-4-(dimethylamino)phenyl]penta-1,4-dien-3-one is labelled as L-Cl; (1E,4E)-1,5-bis[3-bromo-4-(dimethylamino)phenyl]penta-1,4-dien-3-one is labelled as L-Br; (2E,6E)-2,6-bis[4-(dimethylamino)benzylidene]cyclohexanone labelled is labelled as C-H; 2,6-bis[3-chloro-4-(dimethylamino)benzylidene]cyclohexanone is labelled as C-Cl; 2,6-bis[3-bromo-4-(dimethylamino)benzylidene]cyclohexanone is labelled as C-Br. Statistical significance using the student-t test: *p<0.05; **p<0.01. B. Microphotograph of Cyclic-Cl distribution in HeLa and MC3T3 cells upon 24h of exposure to the compounds. Microscope settings used: a 40×/1.3 oil objective; HFT 405/488/633; in particular a 405 nm laser line at 40% of its power. […]

MC3T3 live cells = assay: Resazurin metabolic cell viability assay, MC3T3 cells; type: cell-based, rat; conditions: 24h, 1×10^-5 mol.L^-1
Description: as §1

| Compound | storage stability [1] | cytotoxicity (cell viability, resazurin reduction) (HeLa cells) | cytotoxicity (cell viability, resazurin reduction) (MC3T3 live cells) |
| --- | --- | --- | --- |
| CCN(CC)c1ccc2nc3c4ccccc4c(=O)cc-3oc2c1 [Nile Red, 9-diethylamino-5H-benzo[a]phenoxazine-5-one] | stable if kept at -20 °C |  |  |
| CN(C)c1ccc(/C=C2\CCC/C(=C\c3ccc(N(C)C)c(Br)c3)C2=O)cc1Br [cyclic-Br, (2E,6E)-2,6-bis[3-bromo-4-(dimethylamino)benzylidene]cyclohexanone] |  | not cytotoxic | not cytotoxic |
| CN(C)c1ccc(/C=C2\CCC/C(=C\c3ccc(N(C)C)c(Cl)c3)C2=O)cc1Cl [cyclic-Cl, (2E,6E)-2,6-bis[3-chloro-4-(dimethylamino)benzylidene]cyclohexanone] |  | not cytotoxic | not cytotoxic |
| CN(C)c1ccc(/C=C2\CCC/C(=C\c3ccc(N(C)C)cc3)C2=O)cc1 [cyclic-H, (2E,6E)-2,6-bis[4-(dimethylamino)benzylidene]cyclohexanone] |  | not cytotoxic | not cytotoxic |
| CN(C)c1ccc(/C=C/C(=O)/C=C/c2ccc(N(C)C)c(Br)c2)cc1Br [linear-Br, (1E,4E)-1,5-bis[3-bromo-4-(dimethylamino)phenyl]penta-1,4-dien-3-one] |  | not cytotoxic | not cytotoxic |
| CN(C)c1ccc(/C=C/C(=O)/C=C/c2ccc(N(C)C)c(Cl)c2)cc1Cl [linear-Cl, (1E,4E)-1,5-bis[3-chloro-4-(dimethylamino)phenyl]penta-1,4-dien-3-one] |  | not cytotoxic | not cytotoxic |
| CN(C)c1ccc(/C=C/C(=O)/C=C/c2ccc(N(C)C)cc2)cc1 [linear-H, (1E,4E)-1,5-bis[4-(dimethylamino)phenyl]penta-1,4-dien-3-one] |  | not cytotoxic | not cytotoxic |
